Data from patent US4968609A, “Coryneform bacteria carrying recombinant DNA and a process for producing aromatic amino acids using said bacteria” (priority 1984, dated 1990).

Tests used:
[1] = system: Brevibacterium lactofermentum AJ 12036 transformed with pAR-1 and pAR-2; experiment: Sensitivity of retransformants to m-fluorophenylalanine; assay type: cell-based; conditions: 50 chloramphenicol-resistant retransformants of AJ 12036 with pAR-1 and pAR-2
Method: After culturing at 30° C. for 2 weeks, about 25000 colonies resistant to chloramphenicol appeared, which were replicated in minimal medium (which contained 2% of glucose, 1% of ammonium sulfate, 0.3% of urea, 0.1% of KH2 PO4, 0.04% of MgSO4 ·7H2 O, 2 ppm of iron ions, 2 ppm of manganese ions, […] of thiamine hydrochloride, 50 μg/ml of biotin, 500 μg/ml of m-fluorophenylalanine and 10 μg/ml of chloramphenicol, pH 7.0, 1.8% of agar) to obtain 5 strains resistant to chloramphenicol and m-fluorophenylalanine.
In order to confirm that the gene was present on the recombinant plasmid carrying the DNA fragment, Brevibacterium lactofermentum AJ 12036 was again transformed using the plasmids pARl and pAR-2.
Clearly the genes imparting the m-fluorophenylalanine resistance were present on the above-described plasmids.

[2] = system: 3-deoxy-D-arabinoheptulonic acid-7-phosphate synthetase (DS) of Brevibacterium lactofermentum AJ 12182(AJ 12036/pAR-2); experiment: DS activity of crude enzyme solution with amino acids added, strain AJ 12182 (AJ 12036/pAR-2); conditions: 1 mM each; crude enzyme of AJ 12182 (AJ 12036/pAR-2); activity with none added = 100%
[3] = system: 3-deoxy-D-arabinoheptulonic acid-7-phosphate synthetase (DS) of Brevibacterium lactofermentum AJ 11957; experiment: DS activity of crude enzyme solution with amino acids added, strain AJ 11957; conditions: 1 mM each; crude enzyme of AJ 11957; activity with none added = 100%
[4] = system: 3-deoxy-D-arabinoheptulonic acid-7-phosphate synthetase (DS) of Brevibacterium lactofermentum AJ 12181(AJ 12036/pAR-1); experiment: DS activity of crude enzyme solution with amino acids added, strain AJ 12181 (AJ 12036/pAR-1); conditions: 1 mM each; crude enzyme of AJ 12181 (AJ 12036/pAR-1); activity with none added = 100%
[5] = system: 3-deoxy-D-arabinoheptulonic acid-7-phosphate synthetase (DS) of Brevibacterium lactofermentum AJ 12036; experiment: DS activity of crude enzyme solution with amino acids added, strain AJ 12036; conditions: 1 mM each; crude enzyme of AJ 12036; activity with none added = 100%

Row | SMILES | sensitivity to m-fluorophenylalanine [1] | Residual Activity When Each Amino Acid Was Added [2] [%] | Residual Activity When Each Amino Acid Was Added [3] [%] | Residual Activity When Each Amino Acid Was Added [4] [%] | Residual Activity When Each Amino Acid Was Added [5] [%]
1 | N[C@@H](Cc1cccc(F)c1)C(=O)O [m-fluorophenylalanine] | All of the strains demonstrated m-fluorophenylalanine resistance |  |  |  | 
2 | N[C@@H](Cc1ccccc1)C(=O)O [Phenylalanine, phenylalanine] |  | 99 | 107 | 112 | 94
3 | N[C@@H](Cc1ccc(O)cc1)C(=O)O [Tyrosine, tyrosine] |  | 88 |  | 109 | 51
